Reference: patent US7803801B2, “Aminopyridine compounds having Syk inhibitory activity” (Japan Tobacco, Inc., priority 2005, dated 2010)
Where two headings read alike, the source gives them in different places.

What was measured:
[1] = molecular target: GST-Syk Full Protein (human) (Homo sapiens, UniProt P43405); assay: Syk kinase inhibition test (HTRF method); assay type: biochemical
Outline: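 Human GST-Syk full-length (6.4 nM) phosphorylated biotin-EDPDYEWPSA-NH2 (250 nM) with 100 μM ATP in HEPES pH 7.0/MgCl2 buffer, 2% DMSO, 30 min at room temperature. EDTA stop, then HTRF detection (streptavidin-XL665, Eu anti-phosphotyrosine) after 1 h; 665/620 ratio read.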

[2] = test system: cultured human mast cells; assay: Degranulation inhibition test using cultured human mast cells (IgE cross-linking, β-Hexosaminidase release); assay type: cell-based; details: Mast cell, cultured human mast cells, read-out: human degranulation ave. IC50
Method: Degranulation Inhibition Test Using Cultured Human Mast Cells
(1) Separation of Hematopoietic Stem Cells;
After 10 to 60 mL of umbilical cord blood collected with heparin was diluted with an equivalent amount of buffer (0.5% BSA, 2 mM EDTA/PBS-), it was superposed on Ficoll-Paque (Amersham Pharmacia Biotech) (Ficoll/Blood (1:2)) and mononuclear leukocyte fraction was collected by centrifuging it at 400 G (1350 rpm) 4° C. for 30 minutes. After centrifugal washing (1500 rpm, 5 min, 4° C.×3) with buffer, the number of cells was counted and 0.1 mL of CD34 Progenitor Cell Isolation Kit (Miltenyi Biotec), Reagent A1 (Fc blocking) was added for 1×10^8 cells. After agitation, 0.1 mL of Reagent A2 (CD34 antibody-hapten) was added (final volume 0.5 mL/1×10^8 cells) and incubated at 9° C. for further 15 minutes after agitation. After centrifugal washing (1500 rpm, 5 min, 4° C.×3), it was resuspeded in a buffer (0.4 mL) and 0.1 mL of Reagent B (anti hapten antibody-microbeads) was added and agitated (final volume 0.5 mL/1×10^8 cells) and incubated at 9° C. for further 15 minutes. After centrifugal washing (1500 rpm, 5 min, 4° C.×2), it was resuspeded in a buffer (0.5 mL) and loaded on CS column (Miltenyi Biotec) set in MACS (MAgnetic Cell Sorting system; Miltenyi Biotec, Daiichi Pure Chemicals) and washed with 30 mL of buffer to remove CD34^− cells. The column was separated from MACS and eluted with 30 mL of buffer and CD34^+ cells bound to the column were collected and used as a hematopoietic stem cell population.
(2) Acquisition of Human Mast Cells by Long-Term Culturing of Hematopoietic Stem Cells;
The CD34^+ cells separated in (1) were resuspended in Iscove's Modified Dulbecco's Medium (IMDM, Gibco) containing human (rh)SCF (1 μg/mL, Peprotech), rhIL-6 (0.5 μg/mL, Peprotech), rhIL-3 (10 ng/mL, Peprotech), 1% Insulin-Transferrin (Gibco), 5×10^−5M 2-ME (Gibco), 0.1% BSA (Sigma) in a density of 1×10^6 cells/ml and disseminated on 24-well culture plate with a dose of 0.1 mL/well and 0.9 ml of IMDM (Methocult SF^BIT StemCell technology) containing 0.9% methyl cellulose was added and culturing was started. The above culture medium (excluding methyl cellulose) was added in a week and after that 100 μL/well of the above culture medium (further excluding IL-3) was added at an interval of every once a week so that cells were diluted to maintain 10^5 cells/mL/well order and cultured more than about 8 weeks and thereby human culture mast cells were obtained.
(3) Expression Enhancement of FcεRI and Inhibition Test IgE Cross-Linking Stimulating Degranulation;
rhIL-4 (final concentration 1 ng/mL, R & D) and Homo sapiens(h) IgE (final concentration 0.5 μg/mL, CHEMICON) were added to the obtained human culture mast cells, and they were incubated for 5 days to enhance the expression of FcεRI. After incubation, cells were collected and, after centrifugal washing (IMDM), they were disseminated on 96-well culture plate in 5×10^4 cells/80 μL/well.
10 μL of a compound 10-fold diluted with IMDM after dissolved in DMSO (DMSO final concentration 0.1%) was added and reacted at 37° C. for 10 minutes. Further, 10 μL of anti-hIgE Ab (CHEMICON) adjusted to 100 μg/mL (final concentration 10 μg/mL) was added and degranulation was caused by being stimulated at 37° C. for 30 minutes. After centrifugation, 50 μL/well of the supernatant was collected and stored at −40° C. untill the quantity of degranulation was measured. The measurement of quantity of degranulation was performed using enzymatic activity of β-Hexosaminidase contained in the granulates as an index. That is, an equivalent amount of p-nitrophenyl-N-acetyl-β-D-glucosaminide (1 mM) (containing 0.1% Triton X-100) which is a substrate of β-Hexosaminidase was added to 50 μL of the culture filtrate, and after reacted at 37° C. for 2 hours, the reaction was terminated by using 100 μL of Carbonate buffer (0.1M, pH 10). […]

[3] = Tables 2-x, thiophene compounds B, read-out: sykHTRK ave IC50
[4] = Tables 2-x, thiophene compounds B
[5] = HTRF, 100 μM ATP, 30 min room temperature, average, read-out: sykHTRF ave IC50
[6] = anti-hIgE stimulation, β-Hexosaminidase index, average
[7] = Tables 1-x, compounds A, read-out: sykHTRF ave IC50

Structure (SMILES)	IC50 [1, 5]	IC50 [2, 6]	also measured
Cc1ccnc(Nc2cccc(-c3ccc(C(=O)N4CCNCC4)s3)n2)c1 [Compound B-84, {5-[6-(4-methylpyridin-2-ylamino)pyridin-2-yl]thiophen-2-yl}piperazin-1-ylmethanone]			IC50 [1, 3]: < 100 nM; IC50 [2, 4]: 100 to 1000 nM
COC(=O)[C@H]1CC[C@H](c2ncc(-c3cccc(Nc4cc(C)ccn4)n3)s2)CC1 [Compound A-6, trans-4-{5-[6-(4-methylpyridin-2-ylamino)pyridin-2-yl]thiazol-2-yl}cyclohexanecarboxylic acid methyl ester]	100 to 1000 nM	100 to 1000 nM	
Cc1ccnc(Nc2cccc(-c3cnc(CNC(=O)c4c[nH]cn4)s3)n2)c1 [Compound A-396]			IC50 [1, 7]: 100 to 1000 nM; IC50 ([2]; Tables 1-x, compounds A): > 1000 nM
CC(=O)Nc1nc(C)c(-c2cccc(Nc3cc(C)ccn3)n2)s1 [Compound A-20, N-{4-methyl-5-[6-(4-methylpyridin-2-ylamino)pyridin-2-yl]thiazol-2-yl}acetamide]	< 100 nM	100 to 1000 nM	
Cc1ccnc(Nc2cccc(-c3ccc(CC(C)O)s3)n2)c1 (stereo not shown) [Compound B-71]			IC50 [1, 3]: 100 to 1000 nM; IC50 [2, 4]: 100 to 1000 nM
Cc1ccnc(Nc2cccc(-c3cnc([C@H]4CC[C@H](CN5C[C@@H](O)[C@@H](O)C5)CC4)s3)n2)c1 [Compound A-314, (3R,4S)-1-(trans-4-{5-[6-(4-methylpyridin-2-ylamino)pyridin-2-yl]thiazol-2-yl}cyclohexylmethyl)pyrrolidin-3,4-diol]	< 100 nM	> 1000 nM	
CC(=O)c1ccc(-c2cccc(Nc3cc(OCCN(C)C)ccn3)n2)s1 [Compound B-82]			IC50 [1, 3]: 100 to 1000 nM; IC50 [2, 4]: 100 to 1000 nM
Cc1ccnc(Nc2cccc(-c3cnc(COCC(=O)N4C[C@H](NCc5ccccc5)[C@@H](O)C4)s3)n2)c1 [Compound A-399]			IC50 [1, 7]: > 1000 nM; IC50 ([2]; Tables 1-x, compounds A): > 1000 nM
Cc1ccnc(Nc2cccc(-c3cnc(CCC4CCN(C(=O)c5ccncc5)CC4)s3)n2)c1 [Compound A-301]	100 to 1000 nM	100 to 1000 nM	
Cc1ccnc(Nc2cccc(-c3cnc(CCc4cccc(C(=O)O)c4)s3)n2)c1 [Compound A-276]	100 to 1000 nM	> 1000 nM	
Cc1ccnc(Nc2cccc(-c3cnc(CN4C(=O)COCC4=O)s3)n2)c1 [Compound A-387]			IC50 [1, 7]: 100 to 1000 nM; IC50 ([2]; Tables 1-x, compounds A): 100 to 1000 nM
CC(=O)OC(C)c1ccc(-c2cccc(Nc3cc(C)ccn3)n2)s1 (stereo not shown) [Compound B-4, 1-{5-[6-(4-methylpyridin-2-ylamino)pyridin-2-yl]thiophen-2-yl}ethyl acetate acetic acid ester]			IC50 [1, 3]: 100 to 1000 nM; IC50 [2, 4]: > 1000 nM
COCCO/N=C(\C)c1ccc(-c2cccc(Nc3cc(C)ccn3)n2)s1 [Compound B-46]			IC50 [1, 3]: 100 to 1000 nM; IC50 [2, 4]: > 1000 nM
Cc1ccnc(Nc2cccc(-c3cnc([C@@H]4COC(C)(C)N4C(=O)OC(C)(C)C)s3)n2)c1 [Compound A-12, (S)-2,2-dimethyl-4-{5-[6-(4-methylpyridin-2-ylamino)pyridin-2-yl]thiazol-2-yl}oxazolidine-3-carboxylic acid tert-butyl ester]	> 1000 nM	> 1000 nM	
CC(=O)c1ccnc(Nc2cccc(-c3ccc(C(C)=O)s3)n2)c1 [Compound B-83]			IC50 [1, 3]: 100 to 1000 nM; IC50 [2, 4]: 100 to 1000 nM
Cc1ccnc(Nc2cccc(-c3cnc(N4CCC(C(N)=O)CC4)s3)n2)c1 [Compound A-3, 1-{5-[6-(4-methylpyridin-2-ylamino)pyridin-2-yl]thiazol-2-yl}piperidine-4-carboxamide]	< 100 nM	100 to 1000 nM	
COC1CCN(c2ncc(-c3cccc(Nc4cc(C)ccn4)n3)s2)CC1 [Compound A-431, N-{6-[2-(4-methoxypiperidin-1-yl)thiazol-5-yl]pyridin-2-yl}-N-(4-methylpyridin-2-yl)amine]			IC50 [1, 7]: < 100 nM; IC50 ([2]; Tables 1-x, compounds A): 100 to 1000 nM
Cc1ccnc(Nc2cccc(-c3cnc([C@H]4CC[C@H](C(=O)NCCc5ccccn5)CC4)s3)n2)c1 [Compound A-279]	100 to 1000 nM	100 to 1000 nM	
Cc1ccnc(Nc2cccc(-c3cnc(N4CCN(S(C)(=O)=O)CC4)s3)n2)c1 [Compound A-412]			IC50 [1, 7]: 100 to 1000 nM; IC50 ([2]; Tables 1-x, compounds A): 100 to 1000 nM
CC(=O)c1ccc(-c2cccc(Nc3cc(C)ccn3)n2)s1 [Compound B-1, 1-{5-[6-(4-methylpyridin-2-ylamino)pyridin-2-yl]thiophen-2-yl}ethanone]			IC50 [1, 3]: < 100 nM; IC50 [2, 4]: > 1000 nM
Cc1ccnc(Nc2cccc(-c3cnc(N4CCC(C(=O)N(C)C)CC4)s3)n2)c1 [Compound A-434]			IC50 [1, 7]: 100 to 1000 nM; IC50 ([2]; Tables 1-x, compounds A): > 1000 nM

Further lines, with some results ahead:

IC50 [1, 5]	IC50 [2, 6]	Structure (SMILES)	also measured
100 to 1000 nM	100 to 1000 nM	Cc1ccnc(Nc2cccc(-c3cnc([C@H](C)NC(=O)C(C)C)s3)n2)c1 [Compound A-31]	
100 to 1000 nM	100 to 1000 nM	Cc1ccnc(Nc2cccc(-c3cnc(CC(=O)N4C[C@@H](O)[C@@H](O)C4)s3)n2)c1 [Compound A-255]	
100 to 1000 nM	> 1000 nM	Cc1ccnc(Nc2cccc(-c3cnc(CNC[C@H]4CC[C@H](C(=O)O)CC4)s3)n2)c1 [Compound A-207]	
> 1000 nM	> 1000 nM	Cc1ccnc(Nc2cccc(-c3cnc([C@@H](N)COCc4ccccc4)s3)n2)c1 [Compound A-44]	
< 100 nM	< 100 nM	C[C@H](O)c1ncc(-c2cccc(Nc3cc(CCO)ccn3)n2)s1 [Compound A-321, (S)-1-(5-{6-[4-(2-hydroxyethyl)pyridin-2-ylamino]pyridin-2-yl}thiazol-2-yl)ethanol]	
> 1000 nM	> 1000 nM	CC(=O)N[C@@H](C)c1ncc(-c2cccc(Nc3cc(CC(=O)O)ccn3)n2)s1 [Compound A-331]	
< 100 nM	> 1000 nM	Cc1ccnc(Nc2cccc(-c3cnc(N4CCC(C(=O)O)CC4)s3)n2)c1 [Compound A-2, 1-{5-[6-(4-methylpyridin-2-ylamino)pyridin-2-yl]thiazol-2-yl}piperidine-4-carboxylic acid]	
< 100 nM	100 to 1000 nM	O=C([C@H]1CC[C@H](c2ncc(-c3cccc(Nc4cc(Cl)ccn4)n3)s2)CC1)N1CCC(O)CC1 [Compound A-297, (trans-4-{5-[6-(4-chloropyridin-2-ylamino)pyridin-2-yl]thiazol-2-yl}cyclohexyl)-(4-hydroxypiperidin-1-yl)metanone]	
< 100 nM	< 100 nM	C[C@H](O)c1ncc(-c2cccc(Nc3cc(Cl)ccn3)n2)s1 [Compound A-322, (S)-1-{5-[6-(4-chloropyridin-2-ylamino)pyridin-2-yl]thiazol-2-yl}ethanol]	
> 1000 nM	> 1000 nM	CC(=O)N[C@@H](C)c1nc(C(N)=O)c(-c2cccc(Nc3cc(C)ccn3)n2)s1 [Compound A-117]	
100 to 1000 nM	> 1000 nM	Cc1ccnc(Nc2cccc(-c3cnc(CN)s3)n2)c1 [Compound A-142]	
